pKi: −log10 of the molar value. Where “and” joins values, the source holds several entries; their conditions need not be identical. Equal entries are not always repeated.
Each compound was assayed against T1, C-C chemokine receptor type 2 (Homo sapiens, UniProt P41597) (assay: Displacement of [3H]-CCR2-RA-[R] from human TEV protease site linked CCR2b expressed in human U20S cell membranes co-expressing Gal4-VP16 transcription factor at 1 uM after 120 mins by scintillation spectrometry relative to control). Conditions: not given.
Target sequence in this assay (P41597 whole entry, looked up, the tested form may be a part): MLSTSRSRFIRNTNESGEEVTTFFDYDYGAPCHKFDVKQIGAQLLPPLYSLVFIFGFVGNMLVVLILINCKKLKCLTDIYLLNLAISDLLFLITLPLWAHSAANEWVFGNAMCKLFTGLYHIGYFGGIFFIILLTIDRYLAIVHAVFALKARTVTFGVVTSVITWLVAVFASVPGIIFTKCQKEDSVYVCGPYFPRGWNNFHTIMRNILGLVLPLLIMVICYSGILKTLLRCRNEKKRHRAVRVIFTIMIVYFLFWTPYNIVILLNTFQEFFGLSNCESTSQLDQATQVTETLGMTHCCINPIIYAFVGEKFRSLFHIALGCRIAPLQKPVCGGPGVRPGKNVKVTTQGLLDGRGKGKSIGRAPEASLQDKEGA

Point of comparison: `Cc1ccc(N2C(=O)C(O)=C(C(=O)OC(C)C)C2C2CCCCC2)cc1` (stereo not given), inhibition 6%. Against it:
- CC(=O)C1=C(O)C(=O)N(c2cccc(F)c2)C1C1CCCCC1 (stereo not given) — higher, 47%
- COc1cccc(C2C(C(C)=O)=C(O)C(=O)N2c2ccc(C)cc2)c1 (stereo not given) — lower, 0%
- CC(=O)C1=C(O)C(=O)N(c2ccc(C)cc2)C1c1cccc(Br)c1 (stereo not given) — higher, 19%
- CCOC(=O)C1=C(O)C(=O)N(c2ccc(C)cc2)C1C1CCCCC1 (stereo not given) — higher, 31%
- COc1ccc(C2C(C(C)=O)=C(O)C(=O)N2c2ccc(C)cc2)cc1 (stereo not given) — lower, 5%

The compounds below were run against T2, C-C chemokine receptor type 1 (Homo sapiens, UniProt P32246) (assay: biochemical). Conditions: not given.
T2 sequence (P32246 whole entry): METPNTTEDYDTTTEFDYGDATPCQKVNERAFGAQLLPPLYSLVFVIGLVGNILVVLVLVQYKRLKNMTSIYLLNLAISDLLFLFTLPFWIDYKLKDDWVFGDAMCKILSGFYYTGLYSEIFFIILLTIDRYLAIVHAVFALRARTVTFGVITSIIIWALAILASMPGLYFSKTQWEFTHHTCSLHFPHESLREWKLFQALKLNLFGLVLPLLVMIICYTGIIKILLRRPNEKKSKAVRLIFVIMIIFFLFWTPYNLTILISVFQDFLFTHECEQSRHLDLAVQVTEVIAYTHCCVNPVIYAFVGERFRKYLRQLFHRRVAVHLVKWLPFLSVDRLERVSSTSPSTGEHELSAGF

In the case of `CC(=O)C1=C(O)C(=O)N(c2ccc(C)cc2)C1c1ccc(Br)cc1` (stereo not given), the pKi was 7.07 and 7.06.
`CC(=O)C1=C(O)C(=O)N(c2ccc(C(F)(F)F)cc2)C1C1CCCCC1` (stereo not given) was tested, and the pKi was 6.86 and 6.84.
For `CC(=O)C1=C(O)C(=O)N(c2ccc(C)cc2F)C1C1CCCCC1` (stereo not given), the pKi was 7.56 and 7.54.

Point of comparison: `COc1ccc(C2C(C(C)=O)=C(O)C(=O)N2c2ccc(C)cc2)cc1` (stereo not given), pKi 6.27. Against it:
- CC(=O)C1=C(O)C(=O)N(c2ccc(C)c(C)c2)C1C1CCCCC1 (stereo not given) — 1.10 log units higher, 7.37
- CC(=O)C1=C(O)C(=O)N(c2ccc(C)cc2)C1c1cccc(Br)c1 (stereo not given) — 0.47 log units higher, 6.74
- CCOC(=O)C1=C(O)C(=O)N(c2ccc(C)cc2)C1C1CCCCC1 (stereo not given) — 0.43 log units higher, 6.70

The compounds below were run against T3, C-C chemokine receptor type 1 (Homo sapiens) (UniProt P32246) (assay: Displacement of [3H]-CCR2-RA-[R] from human TEV protease site linked CCR1 expressed in human U20S cell membranes co-expressing Gal4-VP16 transcription factor at 1 uM after 120 mins by scintillation spectrometry relative to control). Conditions: not given.
T3 sequence (whole entry): T2 sequence (P32246 whole entry)

Point of comparison: `COc1cccc(C2C(C(C)=O)=C(O)C(=O)N2c2ccc(C)cc2)c1` (stereo not given), inhibition 28%. Against it:
- Cc1ccc(N2C(=O)C(O)=C(C(=O)OC(C)C)C2C2CCCCC2)cc1 (stereo not given) — higher, 36%
- CC(=O)C1=C(O)C(=O)N(c2cccc(F)c2)C1C1CCCCC1 (stereo not given) — higher, 44%

These compounds were tested against T1, C-C chemokine receptor type 2 (assay: Displacement of [3H]-CCR2-RA-[R] from human TEV protease site linked CCR2b expressed in human U20S cell membranes co-expressing Gal4-VP16 transcription factor after 120 mins by scintillation spectrometry). Conditions: read-out: Ki.
Target sequence in this assay (P41597 whole entry, the tested form may be a part): as the sequence (P41597 whole entry, looked up, the tested form may be a part) above

Point of comparison: `CC(=O)C1=C(O)C(=O)N(c2ccc(C)cc2)C1c1ccc(Br)cc1` (stereo not given), pKi 6.67. Against it:
- CC(=O)C1=C(O)C(=O)N(c2ccc(C(F)(F)F)cc2)C1C1CCCCC1 (stereo not given) — 0.37 log units higher, 7.04
- CC(=O)C1=C(O)C(=O)N(c2ccc(C)cc2F)C1C1CCCCC1 (stereo not given) — 0.76 log units higher, 7.43
- CC(=O)C1=C(O)C(=O)N(c2ccc(C)c(C)c2)C1C1CCCCC1 (stereo not given) — 1.07 log units higher, 7.74

Reference: ChEMBL document CHEMBL4371011, “Pyrrolone Derivatives as Intracellular Allosteric Modulators for Chemokine Receptors: Selective and Dual-Targeting Inhibitors of CC Chemokine Receptors 1 and 2” (J Med Chem, 2018)
